One block for each compound: values may come before it.
Experiments:
physchem = assay: physchem
Procedure: A commercial DBCO-PEG4-5/6-FAM represented by formula (12) (0.5 μmol) and a 9- to 18-mer ε-PL-PEG-azide represented by the general formula (10) (wherein n is an integer of 9 to 18) (1.0 μmol) were dissolved in 80% dimethylsulfoxide (hereinafter referred to as DMSO). The mixture was subjected to a click chemistry reaction while stirred at 30° C. for 24 hours. The reaction mixture was analyzed by ESI-TOF-MS/HPLC as described in Example 1.

HeLa cells = assay: Biomembrane permeability test using HeLa cells (fluorescence intensity of cell extract); assay type: cell-based; conditions: statement for the unmodified dye
Procedure: The culture of HeLa cells was performed in a Dulbecco's modified Eagle's medium (DMEM) containing 10% fetal bovine serum (FBS) in an atmosphere of 5% carbon dioxide at 37° C. Under such culture conditions, the cells were cultured in 12-well plates until grown to 70 to 80% confluency. The cells were washed twice with DMEM without FBS (DMEM w/o FBS). […] Incubation was performed at 4° C. for 30 minutes. The cells were washed successively with phosphate buffered saline (PBS) twice, with PBS alone or PBS containing heparin (100 μg/mL), and with PBS twice. To the cells, 300 μL of 100 mM Tris-HCl buffer solution (pH 8.0) containing 1% Triton X-100 was added for extraction of the compound taken up by the cells. After removing the insoluble fraction by centrifugation, fluorescence intensity was measured.
The culture of HeLa cells was performed in a Dulbecco's modified Eagle's medium (DMEM) containing 10% fetal bovine serum (FBS) in an atmosphere of 5% carbon dioxide at 370° C. Under such culture conditions, the cells were cultured in 12-well plates until grown to 70 to 80% confluency. The cells were washed twice with DMEM without FBS (DMEM w/o FBS). […] Incubation was performed at 4° C. for 30 minutes. […] After removing the insoluble fraction by centrifugation, fluorescence intensity was measured.

[1] = test system: human chronic myelogenous leukemia K562 cells; assay: Cytotoxicity (anticancer activity), MTT assay; assay type: cell-based; conditions: 48 hours
Procedure: (§1) The culture of K562 cells and K562/ADR cells was performed in an RPMI1640 medium containing 10% fetal bovine serum (FBS) in an atmosphere of 5% carbon dioxide at 37° C. The cells were suspended at 1×10^5 cells/mL in the medium, and 100 μL (1×10^4 cells) of the cell suspension was seeded on each well of 96-well plates and cultured for 24 hours. […] MTT assay was performed to determine cytotoxicity based on viable cell count.

[2] = test system: Dox-resistant K562 cells (K562/ADR); assay: Cytotoxicity (anticancer activity), MTT assay; assay type: cell-based; conditions: Homo sapiens, 48 hours
Procedure: as §1

solubility (physchem; water): < 1080 µM
SMILES: C[C@@H]1[C@H](O)[C@@H](C)/C=C/C=C/C=C/C=C/C=C/C=C/C=C/[C@H](O[C@@H]2O[C@H](C)[C@@H](O)[C@H](N)[C@@H]2O)C[C@@H]2O[C@](O)(C[C@@H](O)C[C@@H](O)[C@H](O)CC[C@@H](O)C[C@@H](O)CC(=O)O[C@H]1C)C[C@H](O)[C@H]2C(=O)O [AmpB, amphotericin B]

biomembrane permeability (HeLa cells): no biomembrane permeability
water solubility (physchem): poorly water-soluble
SMILES: O=C(CCOCCOCCOCCOCCNC(=O)c1ccc(-c2c3ccc(=O)cc-3oc3cc(O)ccc23)c(C(=O)O)c1)NCCC(=O)N1Cc2ccccc2C#Cc2ccccc21 [DBCO-PEG4-5/6-FAM]

SMILES: COc1cccc2c1C(=O)c1c(O)c3c(c(O)c1C2=O)C[C@@](O)(C(=O)CO)C[C@@H]3O[C@H]1C[C@H](N)[C@H](O)[C@H](C)O1 [Dox, doxorubicin]
IC50 [1]: 239 ± 72 nM
IC50 [2]: 1040 nM

Reference: patent US20200171162A1, “E-POLY-L-LYSINE DERIVATIVES HAVING FUNCTIONAL GROUP FOR CLICK CHEMISTRY, METHOD FOR PRODUCING THE SAME, AND USE THEREOF” (Fukui Prefectural University, priority 2017, published 2020)
